Ki data for three compounds are collected here from article PMC12443555, “Structural modifications to pregnane neurosteroids alter inhibition of LPS/Lipid A binding at the MD-2 activation site within the TLR4 signaling complex” (Frontiers in Immunology, 2025).

The target of the assay is T1, Myeloid Differentiation factor 2 (MD-2) (Homo sapiens, UniProt Q9Y6Y9).
T1 construct: gene LY96; Recombinant human MD-2 (R&D Systems 1787-MD-050/CF)
T1 sequence (Q9Y6Y9 19-160): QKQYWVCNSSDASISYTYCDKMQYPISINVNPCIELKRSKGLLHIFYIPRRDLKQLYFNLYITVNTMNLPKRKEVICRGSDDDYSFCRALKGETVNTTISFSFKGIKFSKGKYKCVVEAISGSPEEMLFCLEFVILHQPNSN
Nature of the assay: SPR competition against Lipid A ([…]) on immobilized MD-2. Particulars: read-out: Inhibition Constant (Ki). Format: binding.
As to `C[C@]12CC[C@@H](O)C[C@@H]1CC[C@@H]1[C@@H]2CC[C@]2(C)[C@@H](C(=O)CO)CC[C@@H]12` [3α,5α-THDOC], the Ki stood at 0.0576 µM.

Regarding `C[C@@]1(O)CC[C@H]2[C@H](CC[C@@H]3[C@@H]2CC[C@]2(C)[C@@H](C(=O)Cn4nccn4)CC[C@@H]32)C1` [SGE 516], the Ki worked out at 0.0613 µM.

With `CC(=O)[C@H]1CC[C@H]2[C@@H]3CCC4=CC(=O)CC[C@]4(C)[C@H]3CC[C@]12C` [progesterone], the inhibition constant Ki was determined as 0.0494 µM.
